Data as given in patent publication US20040062782A1, “Addition of insect repellent during rinse cycle” (priority 2002, published 2004).

System: insects
Experiment: Insect repellence of articles treated with DEET during the rinse cycle of an automated washing machine
Assay type: in vivo
Description: The present invention centers around adding a insect repellent to articles during the rinse cycle of a washing machine. During the rinse cycle, detergent and stains are dissolved into the fluid medium, while the insect repellent is added to the fluid medium and disseminates throughout the fluid medium and articles within the washing machine and is retained by the contents of the washing machine as the fluid medium is partially removed. As the damp articles are removed from the washing machine and subsequently dried, the insect repellent is retained therein as the fluid medium is removed. While there are various application rates of DEET that produce the desired effect of repelling insects from articles under different conditions, it has been found sufficient to provide along the order of 1 fluid ounce of DEET to the articles during the rinse cycle of an automated washing machine. […] It is also within the scope and spirit of the present invention to add […] more than 1 fluid ounce to increase the concentration of DEET retained by the articles after the rinse cycle is complete. For example, if the articles may be exposed to elevated temperatures for an extended period, say 2 hours or more, the amount of DEET added during the rinse cycle may be higher to compensate for the higher amount of DEET emanating from the articles at the elevated temperatures. […] However, higher or lower ratios may be utilized depending upon the conditions of intended use of the articles or the intended duration of insect repellence. As discussed above, the ratio may be […] along the lines of 1:1 to 2:1 to impart insect repellence in accordance with increased exposure to elevated temperatures, and/or to provide insect repellence during a longer duration.

CCN(CC)C(=O)c1cccc(C)c1 [DEET, N,N-diethyl-m-toluamide]
insect repellence (duration) while the article is being used (on the order of 1 fluid ounce of DEET added to the articles during the rinse cycle, article in use): approximately 24 hours
extended insect repellence (duration) for stored articles (on the order of 1 fluid ounce of DEET added to the articles during the rinse cycle, stored articles): approximately one month
repelling insects from the articles (ratio of 4:1 to 5:1 (in fluid ounces) of fabric softener and/or other components to DEET, added to the rinse cycle): provides the desired effect of repelling insects from the articles
